For experiment [1], the system named is vertebral fractures in osteoporotic post-menopausal women. On the procedure:
VERTEBRAL FRACTURES—Calculations of prevalent and incident categorical vertebral fractures were performed by comparing each patient's baseline vertebral heights with a reference population (prevalent fracture) and with their follow-up heigiits (incident fractures). Only data from the true baselines were used to determine prevalent fractures. Any vertebral height ratio more than three standard deviations below its corresponding population reference value was defined as a prevalent vertebral fracture. An incident fracture was defined as greater than or equal to a 20% reduction from baseline vertebral height, with an absolute decrease of at least 4 mm in any vertebral height between baseline and follow-up.
(§1) Postmenopausal women having a “low” lumbar spinal bone mineral density, defined as either a bone mineral density (BMD) of less than or equal to 0.92 g/cm^2 (+ or −0.02 g/cm^2) as measured by Lunar DPX method, or less than or equal to 0.80 g/cm^2 (+ or −0.02 g/cm^2) as measured by the Hologic QDR method are considered to have osteoporosis. This definition corresponds to a BMD of approximately two and one-half standard deviations below the mean BMD of mature pre-menopausal Caucasian women in the United States. Patients are otherwise in good health based on medical history, a physical examination and a laboratory screening evaluation.
(§2) Data was collected on a total of 881 patients from two study groups (cohorts), following virtually identical protocol design and procedures, except that one study was conducted in the United States, and the other was conducted in Canada, Mexico, Europe, Israel, South America, Australia and New Zealand. Data from the two groups was then pooled. […] Additionally, all patients received dietary evaluation and instruction on calcium intake.
(§3) Assessment of vertebral fracture and vertebral deformity (SDI) was based on measurements from lateral spine x-rays, blinded to sequence. Lateral spine x-rays were taken at baseline, one, two and three years. The process of reading the x-rays involved a computerized entry of measurements taken at each of the vertebrae noted on the x-rays, a process known as digitization. […] A computer mouse with cross-hairs is used to enter the data as X,Y coordinates into a commercially available digitization board and computer software program, which computes the distance between landmarks (vertebral heights) in millimeters.

The test system of experiment [2] is vertebral deformity in osteoporotic post-menopausal women. The settings on record: after three years.
Text: as §1, §2, §3

Experiment [3] concerns decrease in stature in osteoporotic post-menopausal women. The following applies: over three years.
Text: as §1, §2

For `NCCCC(O)(P(=O)(O)O)P(=O)(O)O` [alendronate, 4-amino-1-hydroxy-butylidene-1,1-bisphosphonate], in experiment [1] (three years), the “number of vertebral fractures per 100 patients” value is on record as 4.2. Further, in experiment [1] (three years of study, 17 of 526 women, oral 5, 10 or 20/5 mg daily pooled, p=0.034 vs placebo), the “women with a new vertebral fracture” value is 3.23%. Moreover, the “proportion of patients experiencing two or more fractures among patients with at least one incident vertebral fracture” value in experiment [1] (three years, 3/17) is recorded as 18%. For the same molecule, the “mild fractures (end-plate deformity fractures) among women who sustained an incident fracture” value in experiment [1] (three years, 6/17) is 6/17 (35.3%). Also, the “severe fractures (crush or wedge fractures) among women who sustained an incident fracture” value in experiment [1] (three years, 11/17) is listed as 11/17 (64.7%). Also, in experiment [1] (total number of vertebral fractures), the “reduction in vertebral fracture rate per 100 patients compared to placebo” value is recorded as “at least 63%”. The “SDI mean change from baseline, women with increased deformity” value in experiment [2] was 0.143. For the same molecule, the “SDI mean change from baseline, overall” value in experiment [2] (all women) was determined as 0.041. Besides, the “patients with progression (increase) in vertebral deformity by SDI” value in experiment [2] (p=0.028 by Chi-square test) stood at 33%. For the same molecule, the “mean stature lost in patients who sustained at least one vertebral fracture” value in experiment [3] is 5.9 mm.

For the origin of these results see US20010051616A1, “METHOD OF LESSENING THE RISK OF VERTEBRAL FRACTURES” (priority 1995, published 2001).
